Results published in patent US11084786B2, “Compounds and pharmaceutical composition associated with ubiquitination-proteasome system” (CALGENT BIOTECHNOLOGY CO., LTD., priority 2015, dated 2021).

Legend:
Format in all cases: cell-based
MDA-MB-231 = experiment: Growth inhibition assay (MTT), MDA-MB-231; conditions: Homo sapiens, MDA-MB-231 cells, 48 hours exposure, read-out: MDA-MB-231 GI50 (μM) Mean ± S.E.
Procedure: (§1) Antiproliferative Activity Against Human Normal and Cancer Cell Lines Using Growth Inhibition Assay (GI50)
(§2) The compounds of the invention were subjected to growth inhibition assay. Cells were seeded in 96-well plastic plates and exposed to MPT0L132, MPT0L133, and MPT0L134 for 48 hours. Cell viability was assessed using the 3-(4,5-dimethylthiazol-2-yl)-2,5-diphenyltetrazolium bromide assay. Growth inhibition was expressed as the percentage of surviving cells in drug-treated versus DMSO-treated control cells.

HL-60 = experiment: Growth inhibition assay (MTT), HL-60; conditions: Homo sapiens, HL-60 cells, 48 hours exposure, read-out: HL-60 IC50 (μM) Mean ± S.E.
Procedure: as §1, §2

HCT-116 = experiment: Growth inhibition assay (MTT), HCT-116; conditions: Homo sapiens, HCT-116 cells, 48 hours exposure, read-out: HCT-116 GI50 (μM) Mean ± S.E.
Procedure: as §1, §2

Hep3B = experiment: Growth inhibition assay (MTT), Hep3B; conditions: Homo sapiens, Hep3B cells, 48 hours exposure, read-out: Hep3B GI50 (μM) Mean ± S.E.
Procedure: as §1, §2

GI50 (MDA-MB-231) [µM]	IC50 (HL-60) [µM]	GI50 (HCT-116) [µM]	GI50 (Hep3B) [µM]	Compound
10 to 30	2.5 ± 0.15	3.69 ± 0.24	10 to 30	CN(C)CCNC(=O)c1ccc(CNC2=C(Cl)C(=O)c3ccccc3C2=O)cc1 [MPT0L132, 4-(((3-chloro-1,4-dioxo-1,4-dihydronaphthalen-2-yl)amino)methyl)-N-(2-(dimethylamino)ethyl)benzamide]
10 to 30	1.67 ± 0.27	4.04 ± 0.65	10 to 30	O=C(NCCN1CCCC1)c1ccc(CNC2=C(Cl)C(=O)c3ccccc3C2=O)cc1 [MPT0L133, 4-(((3-chloro-1,4-dioxo-1,4-dihydronaphthalen-2-yl)amino)methyl)-N-(2-(pyrrolidin-1-yl)ethyl)benzamide]
10 to 30	2.52 ± 0.12	3.53 ± 0.24	10 to 30	CCN(CC)CCNC(=O)c1ccc(CNC2=C(Cl)C(=O)c3ccccc3C2=O)cc1 [MPT0L134, 4-(((3-chloro-1,4-dioxo-1,4-dihydronaphthalen-2-yl)amino)methyl)-N-(2-(diethylamino)ethyl)benzamide]
